# Measurements taken from patent US20150093333A1, “COMPOSITIONS, METHODS AND USES FOR PEPTIDES IN DIAGNOSIS, PROGRESSION AND TREATMENT OF CANCERS” (THE REGENTS OF THE UNIVERSITY OF COLORADO, body corporate, priority 2003, published 2015).
# Where two headings read alike, the source gives them in different places. Where no end group is shown, it is not given here. [ ]: non-standard residue; d: D form. Lys(N3) = [N-]=[N+]=NCCCC[C@H](N)C(=O)O; Pra = C#CC[C@H](N)C(=O)O
# B1: C2AB: intact C2A-C2B cytoplasmic domains of rat Synaptotamin-1 (a.a. 96-421), positive control (protein, UniProt P21707 96-421, looked up, fragment)
# chain: GGKNAINMKDVKDLGKTMKDQALKDDDAETGLTDGEEKEEPKEEEKLGKLQYSLDYDFQNNQLLVGIIQAAELPALDMGGTSDPYVKVFLLPDKKKKFETKVHRKTLNPVFNEQFTFKVPYSELGGKTLVMAVYDFDRFSKHDIIGEFKVPMNTVDFGHVTEEWRDLQSAEKEEQEKLGDICFSLRYVPTAGKLTVVILEAKNLKKMDVGGLSDPYVKIHLMQNGKRLKKKKTTIKKNTLNPYYNESFSFEVPFEQIQKVQVVVTVLDYDKIGKNDAIGKVFVGYNSTGAELRHWSDMLANPRRPIAQWHTLQVEEEVDAMLAVKK
# B2: Syt1: Synaptotagmin-I, curvature-sensing protein used as positive control (protein, UniProt P21707 1-421, looked up)
# Synaptotagmin-1: MVSASHPEALAAPVTTVATLVPHNATEPASPGEGKEDAFSKLKQKFMNELHKIPLPPWALIAIAIVAVLLVVTCCFCVCKKCLFKKKNKKKGKEKGGKNAINMKDVKDLGKTMKDQALKDDDAETGLTDGEEKEEPKEEEKLGKLQYSLDYDFQNNQLLVGIIQAAELPALDMGGTSDPYVKVFLLPDKKKKFETKVHRKTLNPVFNEQFTFKVPYSELGGKTLVMAVYDFDRFSKHDIIGEFKVPMNTVDFGHVTEEWRDLQSAEKEEQEKLGDICFSLRYVPTAGKLTVVILEAKNLKKMDVGGLSDPYVKIHLMQNGKRLKKKKTTIKKNTLNPYYNESFSFEVPFEQIQKVQVVVTVLDYDKIGKNDAIGKVFVGYNSTGAELRHWSDMLANPRRPIAQWHTLQVEEEVDAMLAVKK
# How the values were obtained:
# [1] = test system: 8:2 POPC/POPS lipid vesicles; assay: Fluorescence enhancement assay of C2B derived peptides with lipid vesicles; type: binding; details: for lipid vesicle binding and curvature sensing (fluorescence enhancement): 8:2 POPC/POPS vesicles 0.03 to 0.08 μm
# Experimental: In certain examples, lipid vesicles were prepared using extrusion through membranes with pore sizes of 30, 80, and 400 nm to cover a wide range of curvatures. […] A lipid film was deposited on a glass vial by blowing down to dryness with Ar or N2 a CHCl3 solution of the lipids (Avanti Polar Lipids), followed by the removal of residual organic solvent under vacuum for several hours. The lipid film was hydrated overnight at 4° C. in PBS pH 7.4, the lipid suspension of multilamellar vesicles were subjected to five freeze-thaw cycles (except for extrusion through 400 nm pores), and followed by extrusion through polycarbonate membranes with pore diameters of 30, 80, and 400 nm to produce the desired SUVs using […]. […] An increase in the observed fluorescence intensity and a blue shifted λem maximum are directly correlated to a change in the environment surrounding the peptide, e.g., from the polar aqueous solvent to the hydrophobic lipid vesicle, and indicate a peptide-lipid interaction. The peptides were prepared by microwave-assisted SPPS, purified by reversed phase HPLC, and characterized by MALDI-TOF-MS. […] An increase in the observed fluorescence intensity and a blue shifted λem maximum are directly correlated to a change in the environment surrounding the peptide, i.e., from the polar aqueous solvent to the hydrophobic lipid vesicle, indicating a peptide-lipid interaction. Lipid vesicles composed of 8:2 palmitoyl oleoyl phosphatidylcholine (POPC) and palmitoyl oleoyl phosphatidylserine (POPS) were used to represent the approximate phospholipid composition of cellular membranes. These vesicles were prepared by extruding a suspension of multilamellar lipid vesicles in PBS buffer (pH=7.4) through polycarbonate membranes. The diameters of these lipid vesicles were measured using dynamic light scattering (DLS) that was calibrated with 50 nm polystyrene beads. […] FIG. 2 illustrates exemplary fluorescence assays performed to assess the interaction of labeled-peptides on synthetic and biologically relevant lipid vesicles. […]
# [2] = test system: lipid vesicles; assay: 1H NMR of C2B derived peptides treated with lipid vesicles; type: binding
# Experimental: To verify that the origin of the differential peptide interaction towards lipid vesicles is due to the innate property of the peptide itself and not due to the fluorophores, ^1H NMR spectrometry investigations to probe the interaction of C2B derived peptides were carried out.
# This observation is in contrast to NMR profiles of peptides that are known to interact with liposomes.
# [3] = test system: synthetic vesicles of sizes 100 nm and 400 nm; assay: Cosedimentation assay of MARCKS-ED with synthetic vesicles; type: binding; details: gel electrophoresis of supernatant and pellet
# Excerpt: In another exemplary method, lipid vesicles were employed to the curvature-sensing behavior of the MARCKS derived peptides with various sizes and lipid components. The membrane curvature is defined as the reciprocal of the diameter of a particular particle, e.g., smaller-sized vesicles present highly curved membrane bilayers. A series of lipid models were made to represent various lipid components that closely resemble the lipid composition of biological membranes. […] Dynamic light scattering (DLS) and negative-stain transmission electron microscopy (TEM) were performed to confirm the different vesicle sizes following the pressure-controlled extrusion process through different membrane diameter pores. Commercial polystyrene beads were used as the calibration standard for the vesicle size validation experiments. Furthermore, a time-course experiment was carried out to confirm the stability of the vesicles up to 16 hours. Three different membrane diameters were extruded for the following biophysical characterizations: 30 nm, 100 nm, 400 nm, reflecting different membrane curvatures.
# In another exemplary method, a cosedimentation assay was performed to test the size differentiation behavior of MARCKS-ED. Two vesicle pore sizes, 100 and 400 nm, were used in this experiment because vesicles smaller than 100 nm were difficult to pellet even at high centrifugation speed. MARCKS-ED (10 μM) was incubated with 600 μM synthetic vesicles of sizes 100 nm and 400 nm. The positive control was the intact C2A-C2B cytoplasmic domains (C2AB) of rat Synaptotamin-1 (a.a. 96-421). C2AB (1.5 μM) was treated with CaCl2 (1 mM) and incubated with 300 μM synthetic vesicles of sizes 100 nm and 400 nm. C2AB treated with vesicles was incubated at room temperature for 30 minutes, followed by centrifugation of 65,000 rpm for 45 minutes at 20° C. MARCKS-ED treated with vesicles was incubated at room temperature for 2 hours, followed by 75,000 rpm for 45 minutes at 20° C. […]
# [4] = biological target: lipid vesicles; details: cited from earlier work
Molecule,lipid vesicle binding and curvature sensing (fluorescence enhancement) [1],interaction with liposomes (1H NMR peak intensity) ([2]; 0.03 μm vesicles),interaction with liposomes (1H NMR peak intensity) ([2]; vesicles with d=55±6 nm),Kd ([4]; 105 nm vesicles),also measured
C2B-Cou 5: linear GGDYDKIGKNDA peptide N-terminally labeled with 7-hydroxycoumarin-3-carboxylic acid ({7‑hydroxycoumarin‑3‑carbonyl}-GGDYDKIGKNDA),significant binding and curvature sensing property,are interacting with the lipid vesicles,–,–,–
C2B-Trp 4: linear GGDYDKIGKNDA peptide with N-terminal tryptophan (N-terminal tryptophan),significant binding and curvature sensing property,are interacting with the lipid vesicles,–,–,–
"Ac-GGDYDKIGKNDA-NH2 [C2B-Ac 3, linear 12-residue peptide derived from amino acids 363-372 of Syt1]",–,does not interact with the liposomes,weaker binding,–,–
"C2BL3C 1: 12-residue cyclic peptide from Syt1 C2B loop 3, Click cyclization of GGPraDYDKIGKNDANle(ε-N3) (GG[Pra]DYDKIGKNDA[Lys(N3)]-NH2; triazole (positions not given here); numbers in words are those of the source; also: Pra after Gly2 and Nle(ε-N3) after Ala12 joined by click triazole (head-to-tail side-chain cyclisation))",–,–,also interacts with liposomes,–,–
B1,–,–,–,151 ± 6 µM,"pull-down by 100 nm vs 400 nm PS-containing vesicles [3]: more MARCKS-ED or C2AB was pulled down by the 100 nm, PS-containing vesicles than by the larger 400 nm vesicles; increase in binding to smaller vesicles (105 nm) relative to the larger ones (252 nm) [4]: 1.9 fold"
B2,–,–,–,151 µM,"fluorescence enhancement ([1]; with 30 nm vesicles, FIG. 2a): 1.28±0.02 RFU; Kd ([4]; 252 nm vesicles): 263 ± 180 µM"
